# From patent publication US12622910B2, “Inhibitors of Bruton's tyrosine kinase and methods of their use” (Janssen Pharmaceutica NV, priority 2021, dated 2026)
# Like-named read-outs stand apart in the source and are kept apart here.
# Tests used:
# [1] = test system: MDCK-MDR1 (Pgp); experiment: MDCK-MDR1 permeability and efflux
# Experimental: In vitro Absorption, Distribution, Metabolism, and Excretion—The compound of Formula (III) was assessed at a concentration of 5 μM in cell permeability models.
# [2] = Plasma protein binding, equilibrium dialysis; format: in vitro ADME
# Experimental: (§1) Additional Data on Preclinical PK Profile—Protein binding of the compound of Formula (III) was studied using an equilibrium dialysis method in plasma from human, cynomolgus monkey, beagle dog, Sprague Dawley rat, CD-1 mouse, and guinea pig at 0.25, 2.5, and 25 μM. […] In human and monkey, the plasma protein binding was concentration dependent. […] Free fraction of the compound of Formula (III) in liver microsomes from various species ranged from 75.1% to 87.9% at 0.25 mg/mL and from 58.9% to 86.5% at 1.0 mg/mL (Table 17). […] In hepatocytes, the compound of Formula (III) turnover followed a similar trend, with T1/2 ranging from 75.3 minutes in monkey to 278.1 minutes in human.
# [3] = test system: OCI-LY10 (CD79b/Myd88/A20 mutant); experiment: Antiproliferative activity, 8 days; format: cell-based; conditions: Homo sapiens, OCI-Ly10, 192 h, n = 4
# Experimental: (§2) In Vitro Activity in DLBCL Cell Lines—NFκB signaling regulates the secretion of multiple cytokines, including interleukin (IL)-6 and IL-10. Secretion of IL-6 and -10 by ABC-DLBCL OCI-LY-10 cells was measured using a MesoScale assay. […] To determine the anti-proliferative activity of the compound of formula (III), several ABC-DLBCL cell lines—OCI-LY-3, OCI-LY-10, TMD8, and HBL-1—were treated for 8 days. […] The OCI-LY-3 cell line, which harbors a CARD11 mutation downstream of BTK in the NF-κB signaling pathway, was completely insensitive to the compound of Formula (III) up to 2 μM. In 2 experiments, OCI-LY-3 cells were insensitive to the compound of Formula (III) at all concentrations up to 10 μM.
# [4] = test system: TMD8 (CD79b/Myd88/A20 mutant); experiment: Antiproliferative activity, 8 days; format: cell-based; conditions: Homo sapiens, TMD8, 192 h, n = 4
# Experimental: as §2
# [5] = test system: HBL1 (CD79b/Myd88/A20 mutant); experiment: Antiproliferative activity, 8 days; format: cell-based; conditions: Homo sapiens, HBL1, 192 h, n = 4
# Experimental: as §2
# [6] = Liver microsomal binding; format: in vitro ADME; conditions: liver microsomes, read-out: % Free in liver microsomes
# Experimental: as §1
# [7] = molecular target: BTK (Homo sapiens, UniProt Q06187); experiment: ActivX KiNativ native kinase profiling, Ramos cell lysates; format: binding; design: endogenous in cells
# Experimental: (§3) RESULTS AND DISCUSSION—Selectivity—The compound of Formula (III) was evaluated in three selectivity panels to assess the potential for off-target pharmacology (Table 8). […] The kinase off-target profile of The compound of Formula (III) was assessed in a full human wild-type panel using radiometric kinase activity assays (KinaseProfiler™ and IC50Profiler™; Eurofins Scientific) (Table 9; FIG. 23). The compound of Formula (III) inhibited 4/278 kinases >50% at 1 micromolar, identifying BTK and the three other kinases having analogous Cys residues with the potential for covalent inhibition (BMX, TEC, BLK). […]. The cellular kinase selectivity of The compound of Formula (III) was established in native Ramos B cell kinome assays (KiNativ™; ActivX) confirmed BTK as the primary target with inhibition of BLK and TEC inhibition detected (Table 10).
# [8] = molecular target: 278 human wild type kinases; experiment: Full human wild-type kinase panel (KinaseProfiler); format: biochemical; conditions: 1 micromolar
# Experimental: as §3
# [9] = test system: receptors, enzymes, and ion channels; experiment: Panel of diverse proteins (54 test targets); format: binding; conditions: 10 μM
# Experimental: as §3
# [10] = CD-1, mouse, read-out: % Free in plasma
# [11] = beagle, dog, read-out: % Free in plasma
# [12] = cynomolgus monkey, read-out: % Free in plasma
# Chain of BTK (Q06187 whole entry): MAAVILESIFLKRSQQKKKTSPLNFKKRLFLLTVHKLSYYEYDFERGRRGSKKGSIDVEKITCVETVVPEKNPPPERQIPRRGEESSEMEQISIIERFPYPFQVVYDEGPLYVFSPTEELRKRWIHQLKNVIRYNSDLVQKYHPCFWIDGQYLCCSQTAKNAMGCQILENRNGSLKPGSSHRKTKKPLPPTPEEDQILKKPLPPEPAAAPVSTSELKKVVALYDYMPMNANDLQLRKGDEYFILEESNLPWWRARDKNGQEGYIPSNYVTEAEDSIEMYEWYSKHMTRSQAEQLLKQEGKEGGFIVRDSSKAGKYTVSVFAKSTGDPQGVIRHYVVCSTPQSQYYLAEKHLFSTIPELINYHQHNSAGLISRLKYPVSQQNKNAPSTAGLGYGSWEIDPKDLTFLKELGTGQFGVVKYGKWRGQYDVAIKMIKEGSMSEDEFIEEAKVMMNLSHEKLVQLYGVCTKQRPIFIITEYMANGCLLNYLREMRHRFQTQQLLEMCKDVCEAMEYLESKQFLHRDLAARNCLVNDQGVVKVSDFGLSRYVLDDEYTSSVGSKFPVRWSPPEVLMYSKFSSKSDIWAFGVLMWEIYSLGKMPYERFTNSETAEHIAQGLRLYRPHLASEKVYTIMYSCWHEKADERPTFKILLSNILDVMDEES
compound,measurement,setting,value
"C=CC(=O)N[C@H]1CCC[C@H]1NC(=O)c1sc2nccc3c2c1NC(=O)N3c1cnc(CC(C)C)cc1C (atropisomer, axis not shown) [compound of Formula (III), N-((1R,2S)-2-Acrylamidocyclopentyl)-5-(S)-(6-isobutyl-4-methylpyridin-3-yl)-4-oxo-4,5-dihydro-3H-1-thia-3,5,8-triazaacenaphthylene-2-carboxamide]",Efflux Ratio (BA/AB),[1],>115
same,fraction unbound at 0.25 μM,[2]; [10],0.0192
same,fraction unbound at 2.5 μM,"[2]; CD-1, mouse, 2.5 μM, read-out: % Free in plasma",0.024
same,fraction unbound at 25 μM,[2]; [10],0.0335
same,fraction unbound at 0.25 μM,[2]; [11],0.0688
same,fraction unbound at 25 μM,[2]; [11],0.0685
same,fraction unbound at 0.25 μM,[2]; [12],< 0.004
same,fraction unbound at 25 μM,[2]; [12],0.0532
same,fraction unbound at 1 μM,"[2]; female, Wistar, rat, read-out: free fraction in plasma",0.0754
same,IC50,[3],18 nM
same,IC50,[4],34 nM
same,IC50,[5],30 nM
same,fraction unbound at 1 μM,"[6]; dog, 0.25 mg/mL",0.879
same,fraction unbound at 1 μM,"[6]; dog, 1.0 mg/mL",0.694
same,fraction unbound at 1 μM,"[6]; human, 0.25 mg/mL",0.758
same,fraction unbound at 1 μM,"[6]; human, 1.0 mg/mL",0.641
same,fraction unbound at 1 μM,"[6]; monkey, 0.25 mg/mL",0.751
same,fraction unbound at 1 μM,"[6]; monkey, 1.0 mg/mL",0.589
same,fraction unbound at 1 μM,"[6]; mouse, 1.0 mg/mL",0.82
same,fraction unbound at 1 μM,"[6]; rat, 0.25 mg/mL",0.84
same,fraction unbound at 1 μM,"[6]; rat, 1.0 mg/mL",0.865
same,inhibition at 1 µM,[7]; Lys labelling,90.3%
same,inhibition at 1 µM,[7]; activation loop labeling,94.4%
same,kinases inhibited >50%,[8],4/278
same,binding in off-target panel,[9],did not bind >50% at 10 μM for any of the 54 test targets
